What was measured:
[1] = system: larvae of the mustard beetle (Phaedon cochleariae); assay: Phaedon larvae test; format: in vivo; settings: 100 ppm, cabbage leaves dipped
Procedure: (§1) To produce a suitable preparation of active compound, 1 part by weight of active compound is mixed with the stated amounts of solvent and emulsifier, and the concentrate is diluted with emulsifier-containing water to the desired concentration.
Cabbage leaves (Brassica oleracea) are treated by being dipped into the preparation of active compound of the desired concentration and are populated with larvae of the mustard beetle (Phaedon cochleariae) while the leaves are still moist.
After the desired period of time, the kill in % is determined. 100% means that all beetle larvae have been killed; 0% means that none of the beetle larvae have been killed. The kill rates determined are calculated using the Colby formula (see page 32).

[2] = system: caterpillars of the army worm (Spodoptera frugiperda); assay: Spodoptera frugiperda test; format: in vivo; settings: 100 ppm, cabbage leaves dipped
Procedure: as §1
Cabbage leaves (Brassica oleracea) are treated by being dipped into the preparation of active compound of the desired concentration and are populated with caterpillars of the army worm (Spodoptera frugiperda) while the leaves are still moist.
After the desired period of time, the kill in % is determined. 100% means that all caterpillars have been killed; 0% means that none of the caterpillars have been killed. The kill rates determined are calculated using the Colby formula (see page 32).

`Cc1cc(C)c(C2=C(OC(=O)CC(C)(C)C)C3(CCCC3)OC2=O)c(C)c1` [Compound (I-b-1)] was tested, and the “Kill rate in % after 6 d” value [1] was 30% and the “Kill rate in % after 6 d” value [2] was 5%.

Source: patent US7795303B2, “Active agents combination exhibiting insecticidal and acaricide properties” (Bayer CropScience AG, priority 2003, dated 2010)
